Experimental data taken from patent US9409914B2, “Triazolo[4,5-d]pyrimidine derivatives” (Merck Patent GmbH, priority 2012, dated 2016).

Each compound was assayed against GCN2 (Homo sapiens, UniProt Q9P2K8) (assay: GCN2 enzyme assay (TR-FRET Lanthascreen, phosphorylation of GFP-eIF2alpha)). Conditions: 10 μM ATP, 80 nM GFP-eIF2alpha, 30 nM GCN2, room temperature.
Assay type: biochemical
Text: GCN2: Assay principle & conditions
This assay can quantificate the activity of the serin kinase GCN2 (general control non-derepressible-2).
This kinase is involved in the stress metabolism of cells. It is activated upon starvation (amino acid depletion). Its natural substrate is eIF2a (eukaryotic initiation factor 2 alpha subunit), a translation factor, which gets activated (phosphorylated) by GCN2 in case of an amino acid bottleneck in the cells. This in turn leads to a halt of the protein synthesis. Inhibition of GCN2 results in stopping this mechanism: The cell can not stop protein production upon “starvation” stress.
The assay is run in two steps: the enzymatic reaction and the detection step. In the first step GCN2 is incubated with 10 μM ATP and 80 nM of the GFP-labelled substrate eIF2alpha at room temperature.
The enzymatic reaction is stopped by addition of EDTA. The amount of phosphorylated eIF2alpha is determined by TR-FRET (Lanthascreen): A complex is formed consisting of antibody and GFP labelled phospho-eIF2a, which allows a FRET upon exitation at 340 nm.
The GCN2-activity is directly proportional to the ratio of fluorescence units at the emission wavelengthh 520 nm (phosphopeptide-sensitive wavelength=emission of GFP) to the units at 495 nm (reference wavelength=emission of Terbium-chelate).
Final Concentrations in the Enzymatic Reaction

Sequence of GCN2 (Q9P2K8 whole entry, species assumed): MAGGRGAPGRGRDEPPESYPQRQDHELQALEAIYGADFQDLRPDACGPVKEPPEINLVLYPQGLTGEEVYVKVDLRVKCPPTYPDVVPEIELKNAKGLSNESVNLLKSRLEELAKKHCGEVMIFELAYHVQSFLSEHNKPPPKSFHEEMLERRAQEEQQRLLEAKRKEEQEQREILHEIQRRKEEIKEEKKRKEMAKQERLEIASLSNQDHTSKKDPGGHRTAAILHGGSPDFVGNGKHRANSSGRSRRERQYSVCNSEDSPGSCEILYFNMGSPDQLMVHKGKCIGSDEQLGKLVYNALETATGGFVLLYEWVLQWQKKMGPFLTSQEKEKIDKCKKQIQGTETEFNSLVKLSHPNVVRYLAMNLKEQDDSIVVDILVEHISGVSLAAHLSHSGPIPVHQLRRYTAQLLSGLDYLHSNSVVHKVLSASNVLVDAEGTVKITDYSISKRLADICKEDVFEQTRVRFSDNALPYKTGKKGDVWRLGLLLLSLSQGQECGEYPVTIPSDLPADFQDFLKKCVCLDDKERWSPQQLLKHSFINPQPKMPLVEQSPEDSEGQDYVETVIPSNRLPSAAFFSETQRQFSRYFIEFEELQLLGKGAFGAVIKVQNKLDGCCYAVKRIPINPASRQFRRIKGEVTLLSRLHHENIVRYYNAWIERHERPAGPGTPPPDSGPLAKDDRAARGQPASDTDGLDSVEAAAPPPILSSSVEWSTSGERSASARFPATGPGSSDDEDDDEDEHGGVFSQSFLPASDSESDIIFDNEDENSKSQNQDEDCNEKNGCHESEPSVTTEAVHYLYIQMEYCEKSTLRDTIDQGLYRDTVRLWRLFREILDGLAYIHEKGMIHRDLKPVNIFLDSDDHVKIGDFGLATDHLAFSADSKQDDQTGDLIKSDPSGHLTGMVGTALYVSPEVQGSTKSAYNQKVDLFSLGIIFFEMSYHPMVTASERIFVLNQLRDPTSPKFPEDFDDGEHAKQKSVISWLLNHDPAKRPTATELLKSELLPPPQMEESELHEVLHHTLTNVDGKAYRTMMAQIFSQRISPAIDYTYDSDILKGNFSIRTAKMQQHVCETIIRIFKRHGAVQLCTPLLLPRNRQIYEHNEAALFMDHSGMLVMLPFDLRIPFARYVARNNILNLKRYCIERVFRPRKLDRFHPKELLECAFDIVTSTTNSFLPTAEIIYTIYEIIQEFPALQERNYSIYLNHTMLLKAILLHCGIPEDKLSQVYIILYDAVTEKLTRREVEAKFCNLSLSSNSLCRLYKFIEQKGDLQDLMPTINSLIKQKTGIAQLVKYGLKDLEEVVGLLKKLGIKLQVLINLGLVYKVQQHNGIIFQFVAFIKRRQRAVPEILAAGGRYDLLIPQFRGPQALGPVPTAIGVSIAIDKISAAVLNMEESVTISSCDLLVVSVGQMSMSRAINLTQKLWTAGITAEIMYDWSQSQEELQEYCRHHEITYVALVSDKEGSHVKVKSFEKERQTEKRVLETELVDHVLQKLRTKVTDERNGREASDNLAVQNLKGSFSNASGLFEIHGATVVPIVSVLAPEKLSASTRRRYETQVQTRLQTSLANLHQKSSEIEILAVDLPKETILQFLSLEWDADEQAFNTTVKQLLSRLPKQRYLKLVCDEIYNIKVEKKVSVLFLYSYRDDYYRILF

Row | SMILES | IC50
1 | CN1CCC(n2cc(Nc3ncc4nnn(-c5ccc(F)cc5C#N)c4n3)cn2)CC1 [Compound A74, 5-fluoro-2-{5-[1-(1-methyl-piperidin-4-yl)-1H-pyrazol-4-ylamino]-[1,2,3]triazolo[4,5-d]pyrimidin-3-yl}-benzonitrile] | 0.3 to 3 µM
2 | COc1cc(-n2nnc3cnc(Nc4cnn(C5CCOCC5)c4)nc32)ccn1 [Compound A78, [3-(2-methoxy-pyridin-4-yl)-3H-[1,2,3]triazolo[4,5-d]pyrimidin-5-yl]-[1-(tetrahydro-pyran-4-yl)-1H-pyrazol-4-yl]-amine] | < 0.3 µM
3 | c1cnc2cc(-n3nnc4cnc(Nc5cnn(C6CCOCC6)c5)nc43)ccc2c1 [Compound A86, (3-quinolin-7-yl-3H-[1,2,3]triazolo[4,5-d]pyrimidin-5-yl)-[1-(tetrahydro-pyran-4-yl)-1H-pyrazol-4-yl]-amine] | < 0.3 µM
4 | CCOc1ccc(-n2nnc3cnc(Nc4cnn(CCC(C)C)c4)nc32)cc1 [Compound A88, [3-(4-ethoxy-phenyl)-3H-[1,2,3]triazolo[4,5-d]pyrimidin-5-yl]-[1-(3-methyl-butyl)-1H-pyrazol-4-yl]-amine] | < 0.3 µM
5 | CCn1cc(-n2nnc3cnc(Nc4cnn(CCC(C)C)c4)nc32)cn1 [Compound A89, [3-(1-ethyl-1H-pyrazol-4-yl)-3H-[1,2,3]triazolo[4,5-d]pyrimidin-5-yl]-[1-(3-methyl-butyl)-1H-pyrazol-4-yl]-amine] | < 0.3 µM
6 | CC(C)CCn1cc(Nc2ncc3nnn(-c4ccc5ncccc5c4)c3n2)cn1 [Compound A90, [1-(3-methyl-butyl)-1H-pyrazol-4-yl]-(3-quinolin-6-yl-3H-[1,2,3]triazolo[4,5-d]pyrimidin-5-yl)-amine] | < 0.3 µM
7 | c1cnc2cc(-n3nnc4cnc(Nc5cnn(C6CCOCC6)c5)nc43)ccc2n1 [Compound A94, (3-quinoxalin-6-yl-3H-[1,2,3]triazolo[4,5-d]pyrimidin-5-yl)-[1-(tetrahydro-pyran-4-yl)-1H-pyrazol-4-yl]-amine] | < 0.3 µM
8 | O[C@H]1CC[C@@H](n2cc(Nc3ncc4nnn(-c5ccc(Cl)c(F)c5)c4n3)cn2)CC1 [Compound A102, 4-{4-[3-(4-chloro-3-fluoro-phenyl)-3H-[1,2,3]triazolo[4,5-d]pyrimidin-5-ylamino]-pyrazol-1-yl}-cyclohexanol] | 0.3 to 3 µM
9 | O[C@H]1CC[C@@H](n2cc(Nc3ncc4nnn(-c5ccc6nccnc6c5)c4n3)cn2)CC1 [Compound A105, 4-[4-(3-quinoxalin-6-yl-3H-[1,2,3]triazolo[4,5-d]pyrimidin-5-ylamino)-pyrazol-1-yl]-cyclohexanol] | < 0.3 µM
10 | COc1ccc(-n2nnc3cnc(Nc4cnn([C@H]5CC[C@H](O)CC5)c4)nc32)cn1 [Compound A109, 4-{4-[3-(6-methoxy-pyridin-3-yl)-3H-[1,2,3]triazolo[4,5-d]pyrimidin-5-ylamino]-pyrazol-1-yl}-cyclohexanol] | 0.3 to 3 µM
11 | Fc1ccc(-n2nnc3cnc(Nc4cnn(C5CCOCC5)c4)nc32)cc1Cl [Compound A110, [3-(3-chloro-4-fluoro-phenyl)-3H-[1,2,3]triazolo[4,5-d]pyrimidin-5-yl]-[1-(tetrahydro-pyran-4-yl)-1H-pyrazol-4-yl]-amine] | 0.3 to 3 µM
12 | c1cnc2cc(-n3nnc4cnc(Nc5cnn(C6COC6)c5)nc43)ccc2c1 [Compound A112, (1-oxetan-3-yl-1H-pyrazol-4-yl)-(3-quinolin-7-yl-3H-[1,2,3]triazolo[4,5-d]pyrimidin-5-yl)-amine] | 0.3 to 3 µM
13 | COC(=O)c1ccc(-n2nnc3cnc(Nc4cnn(C5CCOCC5)c4)nc32)cc1 [Compound A113, 4-{5-[1-(tetrahydro-pyran-4-yl)-1H-pyrazol-4-ylamino]-[1,2,3]triazolo[4,5-d]pyrimidin-3-yl}-benzoic acid methyl ester] | < 0.3 µM
14 | Fc1cc(-n2nnc3cnc(Nc4cnn(CCN5CCOCC5)c4)nc32)ccc1Cl [Compound A114, [3-(4-chloro-3-fluoro-phenyl)-3H-[1,2,3]triazolo[4,5-d]pyrimidin-5-yl]-[1-(2-morpholin-4-yl-ethyl)-1H-pyrazol-4-yl]-amine] | 0.3 to 3 µM
15 | Fc1ccc(-n2nnc3cnc(Nc4cnn(C5CCOCC5)c4)nc32)cc1F [Compound A116, [3-(3,4-difluoro-phenyl)-3H-[1,2,3]triazolo[4,5-d]pyrimidin-5-yl]-[1-(tetrahydro-pyran-4-yl)-1H-pyrazol-4-yl]-amine] | 0.3 to 3 µM
16 | Fc1cccc(-n2nnc3cnc(Nc4cnn(CCCC5CCNCC5)c4)nc32)c1 [Compound A129, [3-(3-fluoro-phenyl)-3H-[1,2,3]triazolo[4,5-d]pyrimidin-5-yl]-[1-(3-piperidin-4-yl-propyl)-1H-pyrazol-4-yl]-amine] | < 0.3 µM

Row | SMILES | IC50
17 | O=S(=O)(c1ccc(-n2nnc3cnc(Nc4cnn(CCn5cccn5)c4)nc32)cc1)N1CCCC1 [Compound A133, [1-(2-pyrazol-1-yl-ethyl)-1H-pyrazol-4-yl]-{3-[4-(pyrrolidine-1-sulfonyl)-phenyl]-3H-[1,2,3]triazolo[4,5-d]-pyrimidin-5-yl}-amine] | < 0.3 µM
18 | c1cnc2cc(-n3nnc4cnc(Nc5cnn(CCn6cccn6)c5)nc43)ccc2c1 [Compound A134, [1-(2-pyrazol-1-yl-ethyl)-1H-pyrazol-4-yl]-(3-quinolin-7-yl-3H-[1,2,3]triazolo[4,5-d]pyrimidin-5-yl)-amine] | 0.3 to 3 µM
19 | NS(=O)(=O)c1ccc(-n2nnc3cnc(Nc4cnn(CCn5cccn5)c4)nc32)cc1 [Compound A135, 4-{5-[1-(2-pyrazol-1-yl-ethyl)-1H-pyrazol-4-ylamino]-[1,2,3]triazolo[4,5-d]pyrimidin-3-yl)-benzenesulfonamide] | < 0.3 µM
20 | CN1CCC(n2cc(Nc3ncc4nnn(-c5ccc(S(=O)(=O)N6CCCC6)cc5)c4n3)cn2)CC1 [Compound A136, [1-(1-methyl-piperidin-4-yl)-1H-pyrazol-4-yl]-{3-[4-(pyrrolidine-1-sulfonyl)-phenyl]-3H-[1,2,3]triazolo[4,5-d]pyrimidin-5-yl}-amine] | 0.3 to 3 µM
21 | COc1ccc(-n2nnc3cnc(Nc4cnn([C@H]5CC[C@@H](O)CC5)c4)nc32)cn1 [Compound A137, 4-{4-[3-(6-methoxy-pyridin-3-yl)-3H-[1,2,3]triazolo[4,5-d]pyrimidin-5-ylamino]-pyrazol-1-yl}-cyclohexanol] | 0.3 to 3 µM
22 | COc1ccc(-n2nnc3cnc(Nc4cnn(N5CCOCC5=O)c4)nc32)cc1 [Compound A138, 4-{4-[3-(4-methoxy-phenyl)-3H-[1,2,3]triazolo[4,5-d]pyrimidin-5-ylamino]-pyrazol-1-yl}-morpholin-3-one] | < 0.3 µM
23 | CN1CCC(n2cc(Nc3ncc4nnn(-c5ccn(C)n5)c4n3)cn2)CC1 [Compound A139, [1-(1-methyl-piperidin-4-yl)-1H-pyrazol-4-yl]-[3-(1-methyl-1H-pyrazol-3-yl)-3H-[1,2,3]triazolo[4,5-d]pyrimidin-5-yl]-amine] | 0.3 to 3 µM
24 | CCOc1ccc(-n2nnc3cnc(Nc4cc(-c5cnn(C)c5C)n[nH]4)nc32)cc1 [Compound A140, (1′,5′-dimethyl-1H,1′H-[3,4′]bipyrazolyl-5-yl)-[3-(4-ethoxy-phenyl)-3H-[1,2,3]triazolo[4,5-d]pyrimidin-5-yl]-amine] | 0.3 to 3 µM
25 | COc1ccc(-n2nnc3cnc(Nc4cnn([C@H]5CC[C@@H](O)CC5)c4)nc32)nc1 [Compound A141, 4-{4-[3-(5-methoxy-pyridin-2-yl)-3H-[1,2,3]triazolo[4,5-d]pyrimidin-5-ylamino]-pyrazol-1-yl}-cyclohexanol] | < 0.3 µM
26 | CN1CCC(n2cc(Nc3ncc4nnn(-c5ccc(S(N)(=O)=O)cc5)c4n3)cn2)CC1 [Compound A142, 4-{5-[1-(1-methyl-piperidin-4-yl)-1H-pyrazol-4-ylamino]-[1,2,3]triazolo[4,5-d]pyrimidin-3-yl}-benzenesulfonamide] | < 0.3 µM
27 | COc1ccc(-n2nnc3cnc(Nc4cnn([C@H]5CC[C@H](O)CC5)c4)nc32)nc1 [Compound A143, 4-{4-[3-(5-methoxy-pyridin-2-yl)-3H-[1,2,3]triazolo[4,5-d]pyrimidin-5-ylamino]-pyrazol-1-yl}-cyclohexanol] | < 0.3 µM
28 | CC(C)(F)c1ccc(-n2nnc3cnc(Nc4cnn(C5CCOCC5)c4)nc32)cc1 [Compound A144, {3-[4-(1-fluoro-1-methyl-ethyl)-phenyl]-3H-[1,2,3]triazolo[4,5-d]pyrimidin-5-yl}-[1-(tetrahydro-pyran-4-yl)-1H-pyrazol-4-yl]-amine] | < 0.3 µM
29 | O=C1COCCN1n1cc(Nc2ncc3nnn(-c4ccc5cccnc5c4)c3n2)cn1 [Compound A145, 4-[4-(3-quinolin-7-yl-3H-[1,2,3]triazolo[4,5-d]pyrimidin-5-ylamino)-pyrazol-1-yl]-morpholin-3-one] | 0.3 to 3 µM
30 | Cn1ccc(-n2nnc3cnc(Nc4cnn(C5CCOCC5)c4)nc32)n1 [Compound A147, [3-(1-methyl-1H-pyrazol-3-yl)-3H-[1,2,3]triazolo[4,5-d]pyrimidin-5-yl]-[1-(tetrahydro-pyran-4-yl)-1H-pyrazol-4-yl]-amine] | 0.3 to 3 µM
31 | CCn1cc(Nc2ncc3nnn(-c4ccc(C(C)(C)N)cc4)c3n2)cn1 [Compound A148, {3-[4-(1-amino-1-methyl-ethyl)-phenyl]-3H-[1,2,3]triazolo[4,5-d]pyrimidin-5-yl}-(1-ethyl-1H-pyrazol-4-yl)-amine] | 0.3 to 3 µM
